Common to all, as to format: biochemical
One test deals with SAPK2a (h) (Homo sapiens, UniProt Q16539). Description: Kinase inhibition assay (33P-ATP, P30 filter, scintillation counting): SAPK2a. Conditions: 30µM Testsubstanz (100 µM ATP); read-out: Hemmung von Kinasen in % SAPK2a (h). The method, then: (§1) Alle Kinasen werden auf zehnfache Arbeitskonzentration vor Anwendung in dem Essay verdünnt. Die Zusammensetzung des Verdünnungspuffers ist für jede Kinase in der nachfolgenden Tabelle angegeben.
Sequence of SAPK2a (h) (Q16539 whole entry): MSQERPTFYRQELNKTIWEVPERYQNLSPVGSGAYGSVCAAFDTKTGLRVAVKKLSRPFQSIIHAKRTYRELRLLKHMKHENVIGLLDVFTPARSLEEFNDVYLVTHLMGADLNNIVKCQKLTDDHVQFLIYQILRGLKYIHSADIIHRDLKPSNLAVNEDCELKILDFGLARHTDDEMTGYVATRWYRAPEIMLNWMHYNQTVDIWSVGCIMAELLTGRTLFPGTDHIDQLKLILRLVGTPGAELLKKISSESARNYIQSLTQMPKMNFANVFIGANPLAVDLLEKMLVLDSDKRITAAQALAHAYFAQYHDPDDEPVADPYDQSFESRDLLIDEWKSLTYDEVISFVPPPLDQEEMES
(§2) Alle Substrate werden gelöst und auf eine Stammlösung in entsalztem Wasser verdünnt.
(§3) SAPK2a (h) wird in einem Endreaktionsvolumen von 25 µl mit 25 mM Tris pH 7,5, 0.02 mM EGTA, 0.33 mg/ml Myelin-Basisprotein, 10 mM MgAcetat und [γ-^33P-ATP] inkubiert (spezifische Aktivität etwa 50 cpm/pmol, Konzentration wie erforderlich). Die Reaktion wird durch Zugabe von Mg^2+[γ-^33P-ATP] initiiert. Nach 40-minütiger Inkubation bei Raumtemperatur wird die Reaktion durch Zugabe von 5 µl einer 3 %igen Phosphorsäurelösung gestoppt. 10 µl der Reaktion werden dann auf ein P30-Filter gegeben und dreimal jeweils 5 Minuten in 50 mM Phosphorsäure und einmal in Methanol gewaschen. Anschließend wird getrocknet und eine Szintillationszählung durchgeführt.

The next test addresses JNK3 (r) (Rattus norvegicus, UniProt P49187). Description: Kinase inhibition assay: JNK3. The conditions noted are these: 30µM Testsubstanz (100 µM ATP); read-out: Hemmung von Kinasen in % JNK3 (r).
Text: as §1, §2

The next test deals with MAPK1 (h) (Homo sapiens, UniProt P27361). Description: Kinase inhibition assay: MAPK1. Conditions: 30µM Testsubstanz (100 µM ATP); read-out: Hemmung von Kinasen in % MAPK1 (h).
Sequence of MAPK1 (h) (P27361 whole entry): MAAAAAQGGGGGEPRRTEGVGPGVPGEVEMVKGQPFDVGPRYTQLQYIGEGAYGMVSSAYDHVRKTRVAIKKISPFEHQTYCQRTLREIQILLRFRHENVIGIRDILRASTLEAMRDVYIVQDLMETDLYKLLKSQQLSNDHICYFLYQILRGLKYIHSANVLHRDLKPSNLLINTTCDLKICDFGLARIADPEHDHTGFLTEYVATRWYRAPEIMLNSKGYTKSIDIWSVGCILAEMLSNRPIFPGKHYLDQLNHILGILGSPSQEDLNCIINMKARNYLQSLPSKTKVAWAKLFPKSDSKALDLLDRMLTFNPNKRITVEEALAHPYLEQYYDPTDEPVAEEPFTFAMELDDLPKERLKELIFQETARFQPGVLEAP
Text: as §1, §2

The next test has as its target MEK1 (h) (Homo sapiens, UniProt Q02750). Description: Kinase inhibition assay: MEK1 (coupled to MAPK2 assay). Conditions: 30µM Testsubstanz (100 µM ATP); read-out: Hemmung von Kinasen in % MEK1 (h). The method, then:
as §1, §2
MEK1 (h)(1-5 mU) in einem Endreaktionsvolumen von 25 µl wird mit 50 mM Tris pH 7.5, 0.2 mM EGTA, 0.1 % b-Mercaptoethanol, 0,01 % Brij-35, 1 µM inaktives MAPK2 (m), 10 mM MgAcetat und kaltem ATP inkubiert (Konzentration wie erforderlich). Die Reaktion wird durch Zugabe von MgATB initiiert. Nach 40-minütiger Inkubation bei Raumtemperatur werden […] dieses Inkubationsgemisches dazu verwendet, den oben beschriebenen MAPK2-Assay zu initiieren.

The next test has as its target c-RAF (h) (Homo sapiens, UniProt P04049). Description: Kinase inhibition assay (33P-ATP, P30 filter, scintillation counting): c-RAF. Conditions: 40 min; 30µM Testsubstanz (100 µM ATP); read-out: Hemmung von Kinasen in % c-RAF (h). The method, then:
as §1, §2
(§4) c-RAF (ha)(5-10 mU) in einem Endreaktionsvolumen von 25 µl wird mit 25 mM Tris pH 7.5,.0.02 mM EGTA, 0.66 mg/ml Myelin-Basisprotein, 10 mM MgAcetat und [γ-^33P-ATP] inkubiert (spezifische Aktivität etwa 50 cpm/pmol, Konzentration wie erforderlich). Die Reaktion wird durch Zugabe von Mg^2+[γ-^33P-ATP] initiiert. Nach 40-minütiger Inkubation bei Raumtemperatur wird die Reaktion durch Zugabe von 5 µl einer 3 %igen Phosphorsäurelösung gestoppt. 10 µl der Reaktion werden dann auf ein P30-Filter gegeben und dreimal jeweils 5 Minuten in 50 mM Phosphorsäure und einmal in Methanol gewaschen. Anschließend wird getrocknet und eine Szintillationszählung durchgeführt.

A further test has as its target Lck (h) (Homo sapiens, UniProt P06239). Description: Kinase inhibition assay (33P-ATP, P30 filter, scintillation counting): Lck. The conditions noted are these: 30µM Testsubstanz (100 µM ATP); read-out: Hemmung von Kinasen in % Lck (h). The method, then: as §1, §2
as §4, with “Lck (h)(5-10 mU)” for “c-RAF (ha)(5-10 mU)”, “mit 50” for “mit 25”, “pH 7.5, 0.1” for “pH 7.5,.0.02”, “EGTA, 0.1 mM NaVanadate, 250 µM KVEKIGEGTYGVVYK (Cdc2 Peptid),” for “EGTA, 0.66 mg/ml Myelin-Basisprotein,”, “etwa 500” for “etwa 50”

The next test deals with PKA (h). Description: Kinase inhibition assay (33P-ATP, P30 filter, scintillation counting): PKA. The conditions noted are these: 30µM Testsubstanz (100 µM ATP); 40 min.
The target in another test is PKB (h) (Homo sapiens, UniProt P31749). Description: Kinase inhibition assay (33P-ATP, P30 filter, scintillation counting): PKB. The conditions noted are these: 40 min; 30µM Testsubstanz (100 µM ATP); read-out: Hemmung von Kinasen in % PKB (h). The method, then: as §1, §2
Sequence of PKB (h) (P31749 whole entry): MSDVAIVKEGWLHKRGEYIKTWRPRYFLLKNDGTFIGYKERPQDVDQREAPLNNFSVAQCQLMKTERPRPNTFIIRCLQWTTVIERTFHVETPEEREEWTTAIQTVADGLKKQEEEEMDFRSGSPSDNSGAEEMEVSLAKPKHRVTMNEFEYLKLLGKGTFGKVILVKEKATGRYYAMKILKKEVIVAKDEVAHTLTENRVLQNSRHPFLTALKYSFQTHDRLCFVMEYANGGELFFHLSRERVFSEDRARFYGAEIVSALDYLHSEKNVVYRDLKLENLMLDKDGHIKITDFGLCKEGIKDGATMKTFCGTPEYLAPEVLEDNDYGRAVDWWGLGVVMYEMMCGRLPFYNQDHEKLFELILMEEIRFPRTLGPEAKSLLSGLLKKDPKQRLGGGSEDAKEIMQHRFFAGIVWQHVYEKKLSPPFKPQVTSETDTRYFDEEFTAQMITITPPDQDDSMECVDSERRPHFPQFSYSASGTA
as §3, with “PKBα (h)(5-10mU) wird” for “SAPK2a (h) wird”, “mit 8” for “mit 25”, “mM MOPS” for “mM Tris”, “pH 7.0, 0.2” for “pH 7,5, 0.02”, “mM EDTRA, 30 µM GRPRTSSFAEGKK,” for “mM EGTA, 0.33 mg/ml Myelin-Basisprotein,”

The target of the next test is MAPK2 (h) (Homo sapiens, UniProt P28482). Description: Kinase inhibition assay: MAPK2. The conditions noted are these: 30µM Testsubstanz (100 µM ATP); read-out: Hemmung von Kinasen in % MAPK2 (h).
Sequence of MAPK2 (h) (P28482 whole entry): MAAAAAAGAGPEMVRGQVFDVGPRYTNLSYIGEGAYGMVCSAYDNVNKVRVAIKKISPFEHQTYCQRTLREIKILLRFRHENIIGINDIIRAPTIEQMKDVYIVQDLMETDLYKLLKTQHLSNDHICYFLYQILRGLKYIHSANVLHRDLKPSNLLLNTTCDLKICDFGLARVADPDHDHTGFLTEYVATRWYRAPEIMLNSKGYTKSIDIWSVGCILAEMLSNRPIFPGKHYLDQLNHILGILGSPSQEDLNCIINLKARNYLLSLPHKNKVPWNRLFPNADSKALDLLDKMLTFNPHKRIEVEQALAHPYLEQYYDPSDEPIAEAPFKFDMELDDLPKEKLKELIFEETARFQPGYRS
Text: as §1, §2

A further test has as its system ROCKII (h). Description: Kinase inhibition assay (33P-ATP, P30 filter, scintillation counting): ROCK-II. The conditions noted are these: 30µM Testsubstanz (100 µM ATP); 40 min.
Another test concerns the target GSK3β (h) (Homo sapiens, UniProt P49841). Description: Kinase inhibition assay (33P-ATP, P30 filter, scintillation counting): GSK3β. The conditions noted are these: 30µM Testsubstanz (100 µM ATP); read-out: Hemmung von Kinasen in % GSK3β (h). The method, then:
as §1, §2
GSK3β (h)(5-10mU) in einem Endreaktionsvolumen von 25 µl wird mit 8 mM MOPS pH 7.0, 0.2 mM EDTA, 20 µM […](p) EDEEE (phospho GS2 Peptid), 10 mM MgAcetat und [γ-^33P-ATP] inkubiert (spezifische Aktivität etwa 500 cpm/pmol, Konzentration wie erforderlich). Die Reaktion wird durch Zugabe von Mg^2+[γ-^33P-ATP] initiiert. Nach 40-minütiger Inkubation bei Raumtemperatur wird die Reaktion durch Zugabe von 5 µl einer 3 %igen Phosphorsäurelösung gestoppt. 10 µl der Reaktion werden dann auf ein P30-Filter gegeben und dreimal jeweils 5 Minuten in 50 mM Phosphorsäure und einmal in Methanol gewaschen. Anschließend wird getrocknet und eine Szintillationszählung durchgeführt.

Sequence of JNK3 (r) (P49187 whole entry): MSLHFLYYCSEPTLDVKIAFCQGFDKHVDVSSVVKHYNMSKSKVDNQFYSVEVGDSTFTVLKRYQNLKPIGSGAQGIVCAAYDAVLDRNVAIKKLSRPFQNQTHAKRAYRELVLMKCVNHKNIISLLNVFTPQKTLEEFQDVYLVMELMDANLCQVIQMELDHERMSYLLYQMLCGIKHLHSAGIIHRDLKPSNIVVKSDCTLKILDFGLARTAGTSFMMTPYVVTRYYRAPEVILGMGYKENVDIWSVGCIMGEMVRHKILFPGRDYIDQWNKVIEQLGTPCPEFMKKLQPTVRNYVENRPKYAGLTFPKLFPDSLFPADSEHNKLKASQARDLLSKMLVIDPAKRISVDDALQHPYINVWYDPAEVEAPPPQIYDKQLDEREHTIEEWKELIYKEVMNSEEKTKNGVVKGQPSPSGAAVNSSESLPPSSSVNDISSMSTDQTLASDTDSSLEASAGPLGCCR
Sequence of Lck (h) (P06239 whole entry): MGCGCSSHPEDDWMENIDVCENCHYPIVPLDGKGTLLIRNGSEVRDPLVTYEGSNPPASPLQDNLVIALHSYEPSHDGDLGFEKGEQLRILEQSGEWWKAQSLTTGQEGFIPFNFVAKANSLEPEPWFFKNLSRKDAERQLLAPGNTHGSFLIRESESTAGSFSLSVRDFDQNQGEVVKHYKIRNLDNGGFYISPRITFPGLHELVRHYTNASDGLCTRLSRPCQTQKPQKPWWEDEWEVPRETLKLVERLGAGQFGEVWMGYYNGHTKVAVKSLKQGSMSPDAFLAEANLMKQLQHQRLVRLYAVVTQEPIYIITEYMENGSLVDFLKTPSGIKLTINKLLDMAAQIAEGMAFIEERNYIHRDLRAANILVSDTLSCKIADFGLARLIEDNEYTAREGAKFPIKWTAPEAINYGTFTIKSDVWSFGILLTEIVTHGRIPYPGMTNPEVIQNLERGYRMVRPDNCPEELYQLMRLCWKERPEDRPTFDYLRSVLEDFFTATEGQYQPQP
Sequence of c-RAF (h) (P04049 whole entry): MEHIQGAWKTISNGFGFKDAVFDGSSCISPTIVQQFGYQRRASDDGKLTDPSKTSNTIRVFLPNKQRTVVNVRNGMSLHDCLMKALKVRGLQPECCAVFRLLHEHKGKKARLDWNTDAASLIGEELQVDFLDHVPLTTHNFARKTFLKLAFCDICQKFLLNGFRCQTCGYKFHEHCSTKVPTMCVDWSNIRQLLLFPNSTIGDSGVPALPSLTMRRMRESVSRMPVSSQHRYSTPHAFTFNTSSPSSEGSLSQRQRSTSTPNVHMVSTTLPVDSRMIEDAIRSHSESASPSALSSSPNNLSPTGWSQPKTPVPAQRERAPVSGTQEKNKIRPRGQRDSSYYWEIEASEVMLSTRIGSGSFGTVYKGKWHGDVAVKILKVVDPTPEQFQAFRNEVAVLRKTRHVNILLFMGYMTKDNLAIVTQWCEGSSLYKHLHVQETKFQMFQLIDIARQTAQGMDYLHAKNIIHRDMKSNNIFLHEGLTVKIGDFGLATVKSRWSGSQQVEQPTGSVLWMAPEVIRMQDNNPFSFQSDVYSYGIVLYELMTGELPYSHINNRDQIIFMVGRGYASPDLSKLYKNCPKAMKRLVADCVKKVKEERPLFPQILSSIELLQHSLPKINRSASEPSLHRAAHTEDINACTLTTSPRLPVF
Sequence of MEK1 (h) (Q02750 whole entry): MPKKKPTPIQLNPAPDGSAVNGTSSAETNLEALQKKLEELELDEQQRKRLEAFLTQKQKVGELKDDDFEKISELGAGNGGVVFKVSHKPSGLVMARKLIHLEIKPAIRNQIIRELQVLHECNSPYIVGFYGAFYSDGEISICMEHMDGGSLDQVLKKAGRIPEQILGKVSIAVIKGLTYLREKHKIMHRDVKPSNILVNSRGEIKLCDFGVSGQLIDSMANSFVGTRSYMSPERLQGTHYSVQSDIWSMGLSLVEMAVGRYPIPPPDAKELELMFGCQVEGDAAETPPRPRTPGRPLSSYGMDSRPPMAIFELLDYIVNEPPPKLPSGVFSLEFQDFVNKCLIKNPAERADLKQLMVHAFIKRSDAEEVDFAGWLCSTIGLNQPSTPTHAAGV
Sequence of GSK3β (h) (P49841 whole entry): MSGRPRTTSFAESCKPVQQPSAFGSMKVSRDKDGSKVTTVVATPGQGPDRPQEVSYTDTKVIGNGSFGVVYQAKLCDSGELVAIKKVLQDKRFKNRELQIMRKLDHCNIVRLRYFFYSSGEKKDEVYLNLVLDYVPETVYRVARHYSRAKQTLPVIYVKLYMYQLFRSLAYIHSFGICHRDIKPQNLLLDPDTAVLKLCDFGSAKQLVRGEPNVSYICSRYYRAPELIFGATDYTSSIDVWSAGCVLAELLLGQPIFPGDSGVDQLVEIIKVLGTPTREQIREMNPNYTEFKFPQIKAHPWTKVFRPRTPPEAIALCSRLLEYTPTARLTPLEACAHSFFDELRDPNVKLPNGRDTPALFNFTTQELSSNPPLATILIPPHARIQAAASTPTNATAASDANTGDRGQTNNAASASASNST

`C(=Cc1ncnc2[nH]cnc12)c1ccccc1` [Verbd. 72, 6-Styryl-9H-purin]: the inhibition at 30 µM is 17% on SAPK2a (h); 2% at JNK3 (r); 50% at MAPK1 (h); 7% at MEK1 (h); 66% on c-RAF (h); 37% at Lck (h). Moreover, the inhibition at 30 µM on PKB (h) is 7%; at MAPK2 (h), 20%; on GSK3β (h), 20%. Also, in the test with PKA (h), the “Hemmung von Kinasen in % PKA (h)” value is 4%. Also, the “Hemmung von Kinasen in % ROCKII (h)” value in the test on ROCKII (h) stood at 22%.

Regarding `Cn1c(-c2ccc([S+](C)[O-])cc2)nc2c(Sc3ccc(F)cc3)ncnc21` (centres unmarked) [Verbd. 60, 6-(4-Fluoro-phenylsulfanyl)-8-(4-methan-sulfinyl-phenyl)-9-methyl-9H-purin], the inhibition at 30 µM on SAPK2a (h) worked out at 44%; at JNK3 (r), 10%; at MAPK1 (h), 0%; on MEK1 (h), 1%; at c-RAF (h) it was 4%; at Lck (h), 30%. The inhibition at 30 µM worked out at 10% on PKB (h), 0% on MAPK2 (h) and 4% on GSK3β (h). In addition, the “Hemmung von Kinasen in % PKA (h)” value with PKA (h) was 4%. Further, the “Hemmung von Kinasen in % ROCKII (h)” value with ROCKII (h) is listed as 0%.

For the compound `Fc1ccc(Cn2cnc3c(Sc4ccccc4)ncnc32)cc1` [Verbd. 76, 9-(4-Fluoro-benzyl)-6-phenylsulfanyl-9H-purin], the inhibition at 30 µM was 67% on SAPK2a (h); 0% on JNK3 (r); 17% at MAPK1 (h); 1% at MEK1 (h); 0% at c-RAF (h); 12% on Lck (h). In addition, the figures for the inhibition at 30 µM on PKB (h), at MAPK2 (h) and at GSK3β (h) were 13%, 0% and 0%, respectively. Besides, the “Hemmung von Kinasen in % PKA (h)” value with PKA (h) amounted to 0%. In addition, the “Hemmung von Kinasen in % ROCKII (h)” value in the test with ROCKII (h) is reported as 2%.

As for `Cn1c(-c2ccccc2)nc2c(-c3ccc(F)cc3)ncnc21` [Verbd. 41, 6-(4-Fluoro-phenyl)-9-methyl-8-phenyl-9H-purin], the inhibition at 30 µM at SAPK2a (h) stood at 23%; at JNK3 (r), 12%; at MAPK1 (h) it was 20%; on MEK1 (h) it was 5%; at c-RAF (h), 24%; on Lck (h) it was 17%. The inhibition at 30 µM was found to be 31% at PKB (h), 1% at MAPK2 (h) and 26% at GSK3β (h). Also, the “Hemmung von Kinasen in % PKA (h)” value in the test with PKA (h) was 0%. Besides, the “Hemmung von Kinasen in % ROCKII (h)” value in the test with ROCKII (h) came out at 0%.

`Cn1c(-c2ccc(S(C)(=O)=O)cc2)nc2c(Sc3ccccc3)ncnc21` [Verbd. 62, 8-(4-Methansulfonyl-phenyl)-9-methyl-6-phenylsulfanyl-9H-purin]: the inhibition at 30 µM on SAPK2a (h) worked out at 36%; at JNK3 (r), 7%; on MAPK1 (h) it was 9%; at MEK1 (h), 4%; at c-RAF (h), 10%; on Lck (h), 16%. In addition, the figures for the inhibition at 30 µM on PKB (h), on MAPK2 (h) and at GSK3β (h) were 14%, 3% and 0%, respectively. In addition, in the test on PKA (h), the “Hemmung von Kinasen in % PKA (h)” value is 11%. The “Hemmung von Kinasen in % ROCKII (h)” value in the test with ROCKII (h) is reported as 5%.

For `c1ccc(Nc2ncnc3[nH]cnc23)cc1` [Verbd. 1, Phenyl-(9H-purin-6-yl)-amin], the inhibition at 30 µM at SAPK2a (h) amounted to 34%; on JNK3 (r), 11%; on MAPK1 (h) it was 22%; at MEK1 (h), 19%; at c-RAF (h), 19%; on Lck (h) it was 39%. In addition, the inhibition at 30 µM came to 14% on PKB (h), 33% at MAPK2 (h) and 13% at GSK3β (h). Also, the “Hemmung von Kinasen in % PKA (h)” value with PKA (h) was 32%. Moreover, the “Hemmung von Kinasen in % ROCKII (h)” value in the test on ROCKII (h) was determined as 48%.

On to `Fc1ccc(Nc2ncnc3[nH]cnc23)cc1` [Verbd. 2, (4-Fluoro-phenyl)-(9H-purin-6-yl)-amin], for which the inhibition at 30 µM on SAPK2a (h) was determined as 30%; on JNK3 (r), 10%; on MAPK1 (h) it was 33%; at MEK1 (h), 34%; at c-RAF (h), 24%; on Lck (h) it was 42%. The inhibition at 30 µM at PKB (h) came to 18%; at MAPK2 (h) it was 48%; at GSK3β (h), 13%. Moreover, the “Hemmung von Kinasen in % PKA (h)” value in the test on PKA (h) worked out at 40%. For the same compound, in the test on ROCKII (h), the “Hemmung von Kinasen in % ROCKII (h)” value was 52%.

Regarding `Nc1ncnc2c1ncn2Cc1ccc(F)cc1` [Verbd. 42a, 9-(4-Fluoro-benzyl)-9H-purin-6-ylamin], the inhibition at 30 µM at SAPK2a (h) worked out at 7%; at JNK3 (r), 17%; at MAPK1 (h) it was 17%; at MEK1 (h) it was 7%; at c-RAF (h), 25%; at Lck (h), 19%. The values for the inhibition at 30 µM on PKB (h), at MAPK2 (h) and at GSK3β (h) were 0%, 11% and 7%, respectively. For the same compound, in the test with PKA (h), the “Hemmung von Kinasen in % PKA (h)” value is listed as 1%. Further, the “Hemmung von Kinasen in % ROCKII (h)” value with ROCKII (h) stood at 5%.

As to `Fc1ccc(CSc2ncnc3[nH]cnc23)cc1` [Verbd. 10, 6-(4-Fluoro-benzylsulfanyl)-9H-purin], the inhibition at 30 µM on SAPK2a (h) was 29%; at JNK3 (r) it was 12%; on MAPK1 (h), 9%; at MEK1 (h) it was 0%; at c-RAF (h) it was 47%; at Lck (h), 16%. Further, the inhibition at 30 µM at PKB (h) was determined as 6%; at MAPK2 (h), 5%; on GSK3β (h), 0%. In the test on ROCKII (h), the “Hemmung von Kinasen in % ROCKII (h)” value is 18%.

Source of the values: patent EP1444982A1, “The use of purine derivatives as selective kinase inhibitors” (MERCKLE GMBH, priority 2003, dated 2004).
